Assay results as given in US9566265B2, “Carbazole compounds and therapeutic uses of the compounds” (Incuron, LLC, priority 2008, dated 2017).
≈ marks a conversion by molar mass, not a printed value. Where two headings read alike, the source gives them in different places.

Key:
Bloodstream T. brucei = assay: T. brucei bloodstream form in vitro killing; format: cell-based, Trypanosoma brucei
Experimental: Preliminary T. brucei inactivation experiments were performed in vitro. The life cycle of T. brucei involves a “procyclic” developmental stage in a tsetse fly, and a “bloodstream” form in humans. All studies were performed with the bloodstream stage of the parasite, because it is the disease-causing developmental stage.
Suramin, a conventional anti-HAT drug, was used as a positive control.
Bloodstream T. brucei was seeded (3×10^3 cells/mL) in 24-well (500 uL of the media per well) plate. […] Control cultures received equal volumes of DMSO.

A. terreus = assay: in vitro susceptibility CLSI M38A2, MIC; details: Aspergillus terreus
Excerpt: Eight Aspergillus spp. strains were used throughout the study. Six A. fumigatus, one A. flavus and one A. terreus also were used. The A. fumigatus group included two itraconazole-resistant strains (RIT13 and RIT5 strains) (1), one triazole cross-resistant strain (MUT10) (2, 3), one echinocandin cross-resistant strain (EMFRS678P) (4), and 2 wild type susceptible isolates (R21 and ATCC13073).

C. tropicalis = assay: microbe, parasite or virus in culture; format: cell-based; details: Candida tropicalis
Excerpt: Candida spp. strains: 20 Candida spp. clinical isolates and one laboratory control strain (C. albicans SC5314) was used in the study. In the collection were included:
2 C. tropicalis strains, one ATCC control strain (ATCC 750), and one echinocandin cross-resistant (T3) (11).

[1] = tested on: human HT-29 colon adenocarcinoma xenografts
Experimental: (§2) In this study, the antitumor effect and toxicity of the three carbazoles against HCT-8 and HT29 colon cancer tumors were compared with treatment beginning when the tumor size reached 150-200 mg (about 7 days after tumor transplantation).
(§3) Eight to twelve-week-old female athymic nude mice (nu/nu, body weight 22-25 g) were obtained from Harlan Sprague Dawley Inc. (Indianapolis, Ind.) and maintained at five mice/cage with water and food ad libitum according to an institutionally approved animal protocol.
(§4) Human ileocecal adenocarcinoma HCT-8 and colon adenocarcinoma HT-29 xenografts were used. The xenografts were initially established by injecting s.c 10^6 cultured cells and tumors were passed several generations by transplanting about 50 mg non-necrotic tumor (2-3 pieces) via a trocar from the passage tumors when the tumors reach to 1-1.5 g.
(§5) Treatment was initiated 7 days after tumor transplantation when the tumors reached 150-200 mg. The mice in the control group received the vehicle (0.2% hydroxypropylmethylcellulose) at 200 μl per 20 g mouse body weight (same as the treatment groups). Five mice were used for each experimental group with 10 tumors (1 tumor each in the left and right side flanks).
(§6) Two axes (mm) of tumor (L, longest axis; W, shortest axis) were measured with the aid of a Vernier caliper. Tumor weight (mg) was estimated using a formula: tumor weight=½ (L×W2). Tumor measurements were taken daily at the same time as drug treatment and 3-4 times a week of post therapy.
(§7) The kinetics of drug-induced toxicities (body weight loss, diarrhea, and lethality) were determined daily for the first 10 days after treatment and every two days thereafter.
(§8) Antitumor activity was assessed by maximum tumor growth inhibition (MTRI) which is the mean tumor weight of treated group (MTWTG) compared with untreated control group (MTWCG) at the same time point (MTRI=MTWTG−MTWCG)÷MTWCG×100%). The tumor doubling time (TDT) was defined as the mean time for the tumor to reach twice its initial weight. Tumor response was expressed as partial tumor response (PR) when tumor weight was reduced at least 50% of the initial tumor size and complete tumor response (CR) was defined as the inability to detect tumor upon palpation at the initial site of tumor appearance.

[2] = tested on: human HCT-8 ileocecal adenocarcinoma xenografts
Experimental: as §2, §3, §4, §5, §6, §7, §8

[3] = tested on: Caki1 human renal cell carcinoma cells; assay: Caki1 renal cell carcinoma xenograft efficacy test
Experimental: In an efficacy test using these three compounds, athymic nude mice were inoculated subcutaneously with a suspension of Caki1 human renal cell carcinoma cells into both rear flanks. When at least one tumor in a mouse reached 20-50 mm^3, treatment was commenced. […] As a positive control, one group was treated with 40 mg/kg Sunitinib, an approved drug for the treatment of renal cell carcinoma. Treatment was given for 4 weeks on a 5 day on/2 day off schedule. After treatment was completed, mice were monitored for an additional 4 weeks to determine how quickly tumor growth returned to normal.

Bacillus subtilis = assay: antibacterial cytotoxicity assay, gram(+) bacteria (OD600); format: cell-based; details: B. subtilis, 48 hours, over a range of potencies; FIG. 13B
Experimental: In vitro test to evaluate the effect of carbazole compounds on gram(-) and gram(+) bacteria. Two days prior to the start of the cytotoxicity assay, inoculate DH5-α and B. subtilis into 1 ml of corresponding media from glycerol stocks. Allow to grow during the course of the day at 37° C. with shaking. Streak each bacteria on the appropriate agar plates using a sterile inoculation loop and allow to grow overnight at 37° C. in the bacteria incubator. Using a sterile inoculation loop, pick a single colony of bacteria and inoculate 5 ml of the corresponding media in a 14 ml snap cap tube. Grow overnight ( 16 h) at 37° C. with shaking. […] Dilute 5 ml cultures of DH5-α and B. subtilis to an OD600 nm of 0.002, which corresponds to about 2×10^6 cells/ml in a volume sufficient for the experiment (dependent on the number of plates). Plate out 50 μl into each well of X 96-well plates (X=# plates needed for a given experiment). […] Chemicals for testing are prepared by dilution of stock solutions in LB Broth or Nutrient Broth for DH5-α and B. subtilis studies, respectively. Cells are treated with the final chemical concentrations presented in the scheme below (Table 2). Stock solutions are made up in DMSO. […] However, this concentration is dependent on the solubility of a given chemical and actual stock concentrations must be noted at time of experiment. Each library chemical to be tested requires 2 rows of a 96-well plate, thus 4 chemicals ([…]) can be tested in one plate simultaneously. In addition to test chemicals, each plate should include positive and negative controls. As positive control, ampicillin is used at 100 μg/ml. […] Dilutions of chemicals to be added to the plate are made up as 2× concentrations in appropriate bacteria media and added to corresponding wells in a volume of 50 μl. […] This process is repeated until all 10 2× doses are prepared. […] Following the addition of carbazole compounds to 96-well plates containing bacteria, plates are transferred to the 37° C. bacteria incubator for 48 hours. After the incubation, the OD600 mm for each well of the 96-well plates will be measured. […] The % DMSO control is plotted vs compound concentration to generate sigmoid shaped curves. After three runs are complete, the raw data for all three runs is used for IC50 calculations.

Debaryomyces hansenii = assay: in vitro susceptibility CLSI M27A3, MIC; format: cell-based; details: strain 20124, WT, Susceptible
Excerpt: (§1) Other Candida spp. and genera: 1 C. rugosa (M83), 1 C. lipolytica (M159), C. lusitaniae (200450), 1 Cryptococcus neoformans (499), and 1 Debaryomyces hansenii.

C. lipolytica = assay: in vitro susceptibility CLSI M27A3, MIC; format: cell-based; details: Yarrowia lipolytica, strain M159, WT, Susceptible
Excerpt: as §1

Cryptococcus neoformans = assay: in vitro susceptibility CLSI M27A3, MIC; format: cell-based; details: strain 499, WT, Susceptible
Excerpt: as §1

C. rugosa = assay: in vitro susceptibility CLSI M27A3, MIC; format: cell-based; details: Diutina rugosa, strain M83, WT, Susceptible
Excerpt: as §1

C. lusitaniae = assay: in vitro susceptibility CLSI M27A3, MIC; format: cell-based; details: Clavispora lusitaniae, strain 200450, WT, Susceptible
Excerpt: as §1

[4] = p.o. at MTD, 5 days on/2 days off per week, Example 15 5, Example 7 30, Example 13 25 mg/kg/d
[5] = same, maximum weight loss of pretreatment body weight

CCN(CC)CCn1c2ccc3c(c2c2c4c(ccc21)C(=O)CC4)CCC3=O [Example 15]
elimination of parasites (Bloodstream T. brucei; 48 hrs, up to 200 nM Example 7, 20 nM Example 13, 3 nM Example 15): completely eliminated T. brucei | IC50 (Bloodstream T. brucei; Trypanosoma brucei, read-out: IC50 (concentration that killed 50% of the parasites), bloodstream stage, 48 hrs of culture): ~0.5 nM | MIC (A. terreus; read-out: MIC* (24 hs)): 0.08 µM (≈ 0.03 µg/mL) | MIC (A. terreus; read-out: MIC* (48 hs)): 1.28 µM (≈ 0.479 µg/mL) | MIC (C. tropicalis; strain ATCC750, WT, Susceptible, read-out: MIC* (24 hs)): 0.08 µM (≈ 0.03 µg/mL) | MIC (C. tropicalis; strain ATCC750, WT, Susceptible, read-out: MIC* (48 hs)): 0.16 µM (≈ 0.0599 µg/mL) | MIC (C. tropicalis; strain T3, Fks1pS645S/P, Echinocandin cross-resistant, read-out: MIC* (24 hs)): 0.04 µM (≈ 0.015 µg/mL) | MIC (C. tropicalis; strain T3, Fks1pS645S/P, Echinocandin cross-resistant, read-out: MIC* (48 hs)): 0.08 µM (≈ 0.03 µg/mL) | delay of tumor growth (control double time 7.8 days) [1]: 76% | inhibitory rate / tumor growth inhibition [1]: 58% | Antitumor Activity MTGI (%) [1, 4]: 58.4 ± 6.4% | Toxicity (%) lethality ([1]; same): 40% | CR (%) ([1]; same, complete tumor response): 0% | Toxicity (%) MWL [1, 5]: 17.9 ± 6.8% | PR (%) ([1]; same, partial tumor response): 0% | Antitumor Activity TDT ([1]; same, tumor doubling time): 13.1 ± 2.3 days | Antitumor Activity MTGI (%) [2, 4]: 40.0 ± 18.6% | Toxicity (%) lethality ([2]; same): 0% | CR (%) ([2]; same, complete tumor response): 0% | Toxicity (%) MWL [2, 5]: 10.0 ± 3.8% | PR (%) ([2]; same, partial tumor response): 0% | Antitumor Activity TDT ([2]; same, tumor doubling time): 7.5 ± 3.5 days | delay of tumor growth compared to the vehicle control (double time 4.8 days) ([2]; text b677): 57% | weight loss ([3]; 5 mg/kg oral, short-term): 10-15% | tumor growth inhibition compared to the vehicle control ([3]; Day 24 (end of treatment), oral gavage 5 day on/2 day off, Example 7 30, Example 15 5, Example 13 25, Sunitinib 40 mg/kg): 50% | antibacterial effect (Bacillus subtilis): antibacterial effect | MIC (Debaryomyces hansenii; read-out: MIC* (24 hs)): 0.16 µM (≈ 0.0599 µg/mL) | MIC (Debaryomyces hansenii; read-out: MIC* (48 hs)): 0.16 µM (≈ 0.0599 µg/mL) | MIC (C. lipolytica; read-out: MIC* (24 hs)): 0.02 µM (≈ 0.00749 µg/mL) | MIC (C. lipolytica; read-out: MIC* (48 hs)): 0.08 µM (≈ 0.03 µg/mL) | MIC (Cryptococcus neoformans; read-out: MIC* (24 hs)): 0.02 µM (≈ 0.00749 µg/mL) | MIC (Cryptococcus neoformans; read-out: MIC* (48 hs)): 0.08 µM (≈ 0.03 µg/mL) | MIC (C. rugosa; read-out: MIC* (24 hs)): 0.16 µM (≈ 0.0599 µg/mL) | MIC (C. rugosa; read-out: MIC* (48 hs)): 0.66 µM (≈ 0.247 µg/mL) | MIC (C. lusitaniae; read-out: MIC* (24 hs)): 0.04 µM (≈ 0.015 µg/mL) | MIC (C. lusitaniae; read-out: MIC* (48 hs)): 0.16 µM (≈ 0.0599 µg/mL)
